Measurements reported in patent publication EP0326331B1, “Substituted quinolines and cinnolines” (Dow AgroSciences LLC, priority 1988, dated 1989).

Experiments:
Assay type in all cases: in vivo
[1] = tested on: Septoria tritici (leaf blotch); assay: Test 1 greenhouse foliar spray screen, leaf blotch on wheat; settings: disease control rating, foliar spray on wheat, 400 ppm (+++ at 100 ppm)
[2] = tested on: Cercospora beticola (leaf spot); assay: Test 1 greenhouse foliar spray screen, leaf spot on sugar beet; settings: disease control rating, foliar spray on sugar beet, 400 ppm (+++ at 100 ppm)
[3] = tested on: Botrytis cinerea (gray mold); assay: Test 1 greenhouse foliar spray screen, gray mold on grape berries; settings: disease control rating, spray on grape berries, 400 ppm (+++ at 100 ppm)
[4] = tested on: Venturia inaequalis (apple scab); assay: Test 1 greenhouse foliar spray screen, apple scab on apple seedling; settings: disease control rating, foliar spray on apple seedling, 400 ppm (+++ at 100 ppm)
[5] = tested on: melon aphids (Aphis gossypii Glover); assay: Mite/insect screen, MA; settings: Aphis gossypii, percent mortality, SAW, read-out: MA RESULTS %; for mortality at 200 ppm: SM & MA RATE 200 PPM; for mortality at 400 ppm: SM & MA RATE 400 PPM
Outline: (§1)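 Activity is expressed as percent mortality at the indicated spray concentrations. Plants are sprayed to runoff on upper and lower leaf surfaces with aqueous dilutions of an acetone/alcohol emulsifiable formulation, then dried for one hour.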

[6] = tested on: southern armyworm (Spodopetra eridania Cramer); assay: Mite/insect screen, SAW; settings: Spodoptera eridania, percent mortality, SAW, read-out: SAW RESULTS %; for mortality at 200 ppm: SM & MA RATE 200 PPM; for mortality at 400 ppm: SM & MA RATE 400 PPM
Outline: as §1

[7] = tested on: Pyricularia oryzae (rice blast); assay: whole plant or invertebrate; settings: disease control rating, foliar spray on rice, 400 ppm (+++ at 100 ppm)
[8] = tested on: Puccinia recondita tritici (leaf rust); assay: Test 1 greenhouse foliar spray screen, leaf rust on wheat; settings: disease control rating, foliar spray on wheat, 400 ppm (+++ at 100 ppm)
[9] = tested on: Twospotted spider mites (Tetranychus urticae Koch); assay: Mite/insect screen, SM; settings: for mortality at 200 ppm / mortality at 400 ppm: Tetranychus urticae, percent mortality, SAW, read-out: SM RESULTS %; for mortality at 200 ppm: SM & MA RATE 200 PPM; for mortality at 400 ppm: SM & MA RATE 400 PPM
Outline: as §1

corn rootworm = assay: Mite/insect screen, CRW; settings: percent mortality, read-out: CRW RESULTS %; for mortality at 12 ppm: CRW RATE 12.00 PPM; for mortality at 24 ppm: CRW RATE 24.00 PPM
Outline: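 Each compound, taken up in an emulsifier-containing acetone/alcohol mixture and diluted in water to the stated concentrations, was assessed for percent kill following standard exposure times.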

[10] = tested on: Erysiphe graminis tritici (powdery mildew); assay: Test 1 greenhouse foliar spray screen, powdery mildew on wheat; settings: disease control rating, foliar spray on wheat, 400 ppm (+++ at 100 ppm)
[11] = tested on: Pseudoperonospora cubensis (downy mildew); assay: Test 1 greenhouse foliar spray screen, downy mildew on squash; settings: disease control rating, foliar spray on squash, 400 ppm (+++ at 100 ppm)

## Clc1ccc2c(NCCc3ccc(Cl)c(Cl)c3)ccnc2c1 [Example 101, 7-chloro-N-[2-(3,4-dichlorophenyl)ethyl]-4-quinolinamine]
[1]
  LEAF BLOT: - (0-19% control at 400 ppm)
[2]
  LEAF SPOT: +++ (90-100% control at 100 ppm)
[3]
  GRAY MOLD: - (0-19% control at 400 ppm)
[4]
  APPL SCAB: + (20-89% control at 400 ppm)
[5]
  mortality at 200 ppm: 0%
  mortality at 400 ppm: 0%
[6]
  mortality at 200 ppm: 0%
  mortality at 400 ppm: 0%
[7]
  RICE BLAST: - (0-19% control at 400 ppm)
[8]
  LEAF RUST: + (20-89% control at 400 ppm)
[9]
  mortality at 200 ppm: 0%
  mortality at 400 ppm: 0%
Corn rootworm
  mortality at 12 ppm: 0%
  mortality at 24 ppm: 0%
[10]
  POWD MDEW: +++ (90-100% control at 100 ppm)
[11]
  DOWN MDEW: +++ (90-100% control at 100 ppm)

## Fc1cccc(Cl)c1CCNc1ccnc2c(F)cccc12 [Example 103, N-[2-(2-chloro-6-fluorophenyl)ethyl]-8-fluoro-4-quinolinamine]
[1]
  LEAF BLOT: + (20-89% control at 400 ppm)
[2]
  LEAF SPOT: + (20-89% control at 400 ppm)
[3]
  GRAY MOLD: - (0-19% control at 400 ppm)
[4]
  APPL SCAB: +++ (90-100% control at 100 ppm)
[5]
  mortality at 200 ppm: 0%
  mortality at 400 ppm: 0%
[6]
  mortality at 200 ppm: 0%
  mortality at 400 ppm: 0%
[7]
  RICE BLAST: ++ (90-100% control at 400 ppm)
[8]
  LEAF RUST: ++ (90-100% control at 400 ppm)
[9]
  mortality at 200 ppm: 0%
  mortality at 400 ppm: 0%
Corn rootworm
  mortality at 12 ppm: 0%
  mortality at 24 ppm: 0%
[10]
  POWD MDEW: + (20-89% control at 400 ppm)
[11]
  DOWN MDEW: +++ (90-100% control at 100 ppm)

## FC(F)(F)c1ccc2c(NCCc3ccc(Cl)cc3Cl)ccnc2c1 [Example 104, N-[2-(2,4-dichlorophenyl)ethyl]-7-(trifluoromethyl)-4-quinolinamine]
[1]
  LEAF BLOT: - (0-19% control at 400 ppm)
[2]
  LEAF SPOT: + (20-89% control at 400 ppm)
[3]
  GRAY MOLD: - (0-19% control at 400 ppm)
[4]
  APPL SCAB: + (20-89% control at 400 ppm)
[5]
  mortality at 200 ppm: 0%
  mortality at 400 ppm: 0%
[6]
  mortality at 200 ppm: 0%
  mortality at 400 ppm: 60%
[7]
  RICE BLAST: - (0-19% control at 400 ppm)
[8]
  LEAF RUST: - (0-19% control at 400 ppm)
[9]
  mortality at 200 ppm: 0%
  mortality at 400 ppm: 0%
Corn rootworm
  mortality at 12 ppm: 0%
  mortality at 24 ppm: 0%
[10]
  POWD MDEW: - (0-19% control at 400 ppm)
[11]
  DOWN MDEW: ++ (90-100% control at 400 ppm)

## CCN(CCc1ccc(Cl)cc1)c1ccnc2c(F)cccc12 [Example 105, N-[2-(4-chlorophenyl)ethyl]-N-ethyl-8-fluoro-4-quinolinamine]
[1]
  LEAF BLOT: + (20-89% control at 400 ppm)
[2]
  LEAF SPOT: + (20-89% control at 400 ppm)
[3]
  GRAY MOLD: - (0-19% control at 400 ppm)
[4]
  APPL SCAB: - (0-19% control at 400 ppm)
[5]
  mortality at 200 ppm: 80%
  mortality at 400 ppm: 50%
[6]
  mortality at 200 ppm: 30%
  mortality at 400 ppm: 0%
[7]
  RICE BLAST: ++ (90-100% control at 400 ppm)
[8]
  LEAF RUST: +++ (90-100% control at 100 ppm)
[9]
  mortality at 200 ppm: 100%
  mortality at 400 ppm: 0%
[9]; summary statement in the description
  activity as miticides: particularly excellent activity
Corn rootworm
  mortality at 12 ppm: 0%
  mortality at 24 ppm: 0%
[10]
  POWD MDEW: +++ (90-100% control at 100 ppm)
[11]
  DOWN MDEW: +++ (90-100% control at 100 ppm)

## CN(c1ccc(F)cc1)c1ccnc2cc(Cl)ccc12 [Example 106, 7-chloro-N-(4-fluorophenyl)-N-methyl-4-quinolinamine]
[1]
  LEAF BLOT: + (20-89% control at 400 ppm)
[2]
  LEAF SPOT: + (20-89% control at 400 ppm)
[3]
  GRAY MOLD: - (0-19% control at 400 ppm)
[4]
  APPL SCAB: - (0-19% control at 400 ppm)
[5]
  mortality at 400 ppm: 0%
[6]
  mortality at 400 ppm: 0%
[7]
  RICE BLAST: + (20-89% control at 400 ppm)
[8]
  LEAF RUST: + (20-89% control at 400 ppm)
[9]
  mortality at 400 ppm: 0%
Corn rootworm
  mortality at 24 ppm: 0%
[10]
  POWD MDEW: ++ (90-100% control at 400 ppm)
[11]
  DOWN MDEW: + (20-89% control at 400 ppm)
